Source: patent publication US20120053119A1, “THERAPEUTIC METHOD FOR INCREASING PANCREATIC BETA CELL MASS” (priority 2009, published 2012)

Assays:
Assay type in all cases: cell-based
beta-catenin = assay: Western immunoblot of total and active (unphosphorylated) beta-catenin in INS-1 cells
Description: FIG. 5. Inhibition of TCF7L2 or beta-catenin suppresses SDF-1 induced TOPflash activity. A. Dominant-negative TCF7L2 inhibits both basal and SDF-1-induced TOPflash activity. B. SiRNAs to beta-catenin SiRNAs inhibit SDF-1-stimulated Wnt signaling in INS-1 cells. INS-1 Cells were transfected and preincubated with TOPflash and the combination of either siRNAs 1 and 2, or scrambled siRNA and then treated for 4 hrs with 1 nM SDF-1 or control vehicle. Data are normalized for transfection efficiency by co-transfected beta-galactosidase and represent means±S.D. of three experiments. C. SDF-1 stabilizes beta-catenin through GPCR coupled Galphai/o. INS-1 cell cultures were stimulated with SDF-1 for the indicated times. Immunoblot analyses with anti-beta-catenin or anti-unphosphorylated beta-catenin (active beta-catenin).
Western Immunoblots Membrane immunoblots were prepared from extracts of INS-1 cells and were interrogated with antisera to beta-catenin: total protein (Santa Cruz), and active form with the mutated GSK-3 phosphorylation sites (UpState 8E7).
The transcriptional activation of Wnt target genes requires the association of TCF7L2 with nuclear beta-catenin. Therefore, we investigated whether active TCF7L2 is necessary for SDF-1-induced Wnt signaling. […]

INS-1 cells [1] = assay: ATP-lite cell viability assay, glucose toxicity; conditions: 25 mM glucose, SDF-1 added day 0, 2, 4, read day 6
Description: FIG. 34. […] For bars 3-8, SDF-1 was added at the indicated concentrations to high glucose concentration well plates at day 0, 2, 4. Cell viability was measured at day 6. N=4.
SDF-1 was added at various concentrations (0.1 nM, 0.25 nM, […], 1 nM, 2.5 nM, and 5 nM) to high glucose concentration well plates at day 0, 2, 4. Cell viability was measured at day 6, using the ATP-lite cell viability assay (PerkinElmer, Boston, Mass.).

INS-1 cells [2] = assay: Thapsigargin-induced apoptosis, TUNEL staining; conditions: co-incubation with SDF-1
Description: FIG. 6. Inhibition of apoptosis by SDF-1 in INS-1 and MIN-6 cells is reversed by knock-down of betacatenin. A. Western blot analysis of extracts from MIN6 cells that were mock treated, thapsigargin-treated (1 μM) and/or siRNA transfected (0.25 mg/ml), by using anti-serum against cleaved caspase-3 (upper panel), anti-serum against cleaved PARP (middle panel) and actin antibody (lower panel) as a loading control. B. Caspase-3 activity (fluorescence/mg proteinx105) of INS-1 or MIN6 cells mock treated, thapsigargin-treated (1 μM) and/or siRNA transfected (0.25 mg/ml). Results are presented as mean±SD for n=3 independent experiments, All values are relative to the first (leftmost) bar. Statistical significance is depicted as * (p<0.05) when compared with control values (leftmost bar) and # (<0.05) when compared with […] thapsigargin treatment. C. Representative images are shown for TUNEL staining of INS-1 cells of n=3 independent experiments. Quantification of apoptotic cells is expressed as percent apoptotic cells relative to the total cells counted (lower left panel). […]
DAPI (nuclei fluorescence) and TUNEL staining For the terminal deoxynucleotidyl transferase mediated dUTP nick end labeling (TUNEL) assay, cells seeded in 4-well chamber slides (Lab-Tak) were treated with thapsigargin and TUNEL assay performed (DeadEnd™ Fluorimetric TUNEL System kit, Promega). […]

Akt = assay: Phospho-Akt to Akt ratio by Western immunoblot in alphaTC-1 cells
Excerpt: FIG. 18. Activation of CXCR4 by SDF-1 in alphaTC-1 cells induces phosphorylation of Akt. Shown is a semi-quantitative measurement of the ratio of phospho-Akt to Akt (lower) determined by Western immunoblots (upper).

Wnt signaling = Wnt signaling luciferase reporter assay (TOPflash/FOPflash) in INS-1 cells; conditions: dose response
Description: Wnt signaling is indicated by the value of TOPflash luciferase activity divided by FOPflash activity. A. Time course of the TOPflash:FOPflash ratio of INS-1 cell treated with 1 nM SDF-1. B. Ratio of TOPflash to FOPflash activity in INS-1 cells treated with increasing doses of SDF-1. C. […] All values are relative to the value of the untreated INS-1 cells. Data are normalized for transfection efficiency by co-transfected beta-galactosidase and represent means±S.D. of three experiments.
All values are relative to the first (leftmost) bar. Statistical significance is depicted as * (p<0.05) when compared with control values (leftmost bar). Data are normalized for transfection efficiency by co-transfected beta-galactosidase and represent means±S.D. of three experiments.
Wnt Signaling Luciferase Reporter Assay (TOPflash) INS-1 cells were plated into 24-well dishes 24 hr before transfection with TOPflash or the mutant, control reporter, FOPflash (1 microg/well) using LipofectAMINE2000 (Invitrogen). Various concentrations of SDF-1 or AMD3100 were then added to the culture medium 24 h following transfection for the indicated period of time. In studies in which inhibitors were used, LY294002 (50 microM), PD98059 (10 microM) or SH-5 (10 nM) were added concomitantly with SDF-1. In studies in which wild-type (wt), dominant-negative (dn) or contitutively-active (ca) forms of kinase were used, dnTCF7L2, dnGSK3beta, caGSK3beta, dnAkt, or caAkt (0.5 microg/well) was cotransfected with TOPflash. Luciferase activity in transfected cells was determined with a luciferase assay kit (Promega).
We examined SDF-1 induction of Wnt signaling using a Wnt signaling reporter assay (TOPflash/FOPflash). The TOPflash and FOPflash constructs contain the luciferase reporter either under the control of consensus TCF7L2-binding sites or mutated TCF7L2-binding sites, respectively. Luciferase activity was measured during 4 hr after addition of 1 nM SDF-1 (FIG. 3A).

Substance: SDF-1: small, secreted 70 amino acid peptide chemokine, SEQ ID NO: 1, ligand of CXCR4
- level of active beta-catenin (unphosphorylated on Ser-33 and Ser-37) (beta-catenin; 30 min after SDF-1 treatment): increased
- total beta-catenin (beta-catenin; after 24-48 hours of SDF-1 treatment): substantial increase
- protection of cell viability against glucose toxicity (INS-1 cells [1]): dose-dependently protects
- effect on thapsigargin-increased number of TUNEL positive cells (INS-1 cells [2]): inhibited
- Akt activation (phosphorylation) in alpha cells (Akt): activates Akt
- SDF-1 concentration giving maximum Wnt signaling response (TOPflash/FOPflash) (Wnt signaling): 0.4 nM
